PMC10759609, “A novel PDPN antagonist peptide CY12-RP2 inhibits melanoma growth via Wnt/β-catenin and modulates the immune cells” (Journal of Experimental & Clinical Cancer Research : CR, 2024)
Peptide text beside a SMILES is read from it.

Legend:
[1] = tested on: A375 cell spheroids (caspase3); assay: Caspase3 immunofluorescence in 3D spheroids; type: cell-based; conditions: 3D melanoma cell spheroids (A375 in Fig. S3G legend), 72 h
Description: Prepared melanoma cells spheroids were plated in 48-well plates. Following incubation for 3 days, the spheroids were exposed to different concentrations (0, 50, 100 and 200 μM) of CY12-RP2, and changes in spheroid diameter were detected after 5 days of treatment. Additionally, melanoma cell spheroids were treated with various concentrations of CY12-RP2 as described previously, and after 72 h, the spheroids were stained for immunofluorescence with caspase 3 primary antibody. The specific experimental procedures refer to the following immunofluorescence analysis. Additionally, we co-cultured peptide-stimulated PBMC with spheroids to determine the tumor-killing ability of activated PBMC.
Transwell assays were performed to quantify the modulatory effects of SKL2001 and IWR1 (C). Statistical analysis was performed to evaluate the invasion of cells (D). The power field scale bar, 100 μm. (E) Western blot assays were also performed on EMT-related proteins to identify the effects of SKL2001 and IWR1. […]
(A) Cell viability of melanoma cell lines (A375, A875) treated with 6 peptides except CY12-RP2 at various concentrations for 48 h. […] (C) SPR assay was performed to quantify […]
melanoma cell lines (A375, A875). […] (G) Immunofluorescence staining was performed to measure the caspase3 fluorescence intensity of A375 cell spheroids after treating with CY12-RP2. […]

A875 cells = assay: Annexin V/PI flow cytometry apoptosis, A875; type: cell-based; conditions: 0, 50, 100, 200 μM, 48 h
Description: In this study, cell apoptosis was analyzed by flow cytometry using a PI/FITC-Annexin V Apoptosis Detection Kit (4A Biotech, Beijing, China). Briefly, melanoma cells were collected and washed with pre-chilled PBS, then resuspended with Annexin V staining buffer. Afterward, fluorescein isothiocyanate (FITC)-Annexin V and PI were stained for 5 min at RT, and then immediately detected using a Beckman flow cytometer. To investigate immune cell infiltration of the lung and spleen in the pulmonary metastasis mouse model, the surface and nuclear antigen staining were performed following the experimental procedure. Fluorescence-labeled mAb against CD3, CD25, CD49b, GranzymeB, CD11b, CD86, and CD206 were purchased from BioLegend (BioLegend, San Diego, CA), and CD4, CD8, and Foxp3 from Tonbo. […] Finally, the samples were measured using flow cytometry.
Fig. 3 Biopanning of PDPN antagonist peptides. […] B Immunofluorescence staining was performed to quantify the colocalization of CY12-RP2 and PDPN protein in melanoma cell lines (A375, A875). […] D Suppression efficiency of melanoma cells growth by CY12-RP2 was measured by CCK8 assay at various concentrations for 24, 48 or 72 h, respectively. […] G, H The 3D cellular spheres were treated with the set concentrations of CY12-RP2 for 5 days and cell morphology was assessed (G), relative spheroid diameter was measured (H). […]

melanoma cells = assay: Melanoma cell / stimulated PBMC co-culture killing; type: cell-based; conditions: PBMC ratios 0%-50%, 48 h, crystal violet
Description: PBMCs (Shenzhen People's Hospital. Shenzhen, China)) from a healthy donor were isolated using a density gradient centrifugation procedure. Firstly, the immune cell proportions analysis of PBMCs was measured using flow cytometry. We then investigated the effect of CY12-RP2 on the cytokines in PBMCs using ELISA assays. Briefly, PBMCs (5 × 10^5 cells/well) were cultured in 24-well plates with RPMI1640 containing 10% FBS for 24 h, and the cells were stimulated with CY12-RP2 (50 µM) for 48 h. Afterward, supernatants were collected for subsequent assays. […] The experimental results were then observed by crystal violet staining after 48 h.

[2] = tested on: B16F10-Luc melanoma allograft; type: in vivo, BALB/c mice; murine melanoma cell line; conditions: 100 mg/kg, tail vein, every other day for 15 days
Description: Tumorigenesis assays were conducted in vivo using BALB/c nude mice and BALB/c mice from Guangdong Medical Laboratory Animal Center. The animal study was reviewed and approved by the Administrative Committee on Animal Research of Shenzhen International Graduate School, Tsinghua University (Ethical Development No. 16, 10 November 2021). Samples with 5 × 10^5 A375 or B16F10-Luc melanoma cells were diluted in 100 μL PBS and injected subcutaneously into 6- to 8-week-old female BALB/c nude mice or BALB/c mice. 5 days later, the mice were treated with CY12-RP2 by tail vein administration at various doses (25 mg/kg and 100 mg/kg) every two days. The tumor volume and body weight were measured every 2 days, with the calculation of the tumor volume under the assumption of an ellipsoidal tumor as: tumor volume = length × width^2/2. Tumors from BALB/c nude mice were collected and photographed on day 21, while tumors from the allograft mouse model were measured using bioluminescence imaging. The blood collected from the eyes of BALB/c nude mice were stored at 4 °C for 24 h and then centrifuged for 15 min under the indicated conditions (4 °C, 3000 rpm). The supernatant was collected and assayed for drug toxicity using kits, including AST, ALT, TG, and γ-GT. […]

With `CC(C)C[C@H](NC(=O)[C@H](Cc1ccc(O)cc1)NC(=O)[C@@H](N)[C@@H](C)O)C(=O)N[C@@H](CS)C(=O)N[C@H](C(=O)N[C@@H](C)C(=O)N[C@@H](CS)C(=O)N[C@@H](CC(=O)O)C(=O)N[C@@H](Cc1ccc(O)cc1)C(=O)N[C@H](C(=O)N[C@@H](Cc1c[nH]cn1)C(=O)N[C@@H](Cc1c[nH]cn1)C(=O)O)[C@@H](C)O)[C@@H](C)O` [CY12-RP2] (H-TYLCTACDYTHH-OH; N-terminus and C-terminus assumed) the “level of Caspase3” value [1] was “significantly increased”, the apoptosis rate (A875 cells) was “milder” and the “viability of tumor cells with CY12-RP2-pretreated PBMC” value (melanoma cells) was “declined significantly”. The tumor volume [2] was “noticeably decreased” and the “tumor growth (bioluminescence imaging)” value ([2]; vs control) was “significantly decreased tumor growth”.
